From US9833455B2, “Preparation and methods of use for ortho-aryl 5-membered heteroaryl-carboxamide containing multi-targeted kinase inhibitors” (Spacefill Enterprises LLC, priority 2011, dated 2017)
Like-named read-outs stand apart in the source and are kept apart here. Blank lines part the entries; values can stand above or below the compound they belong to.

What was measured:
[1] = target: T1, BRAF (Homo sapiens, UniProt P15056); assay: Nanosyn kinase profiling, % inhibition; assay type: biochemical; settings: panel of 230 kinases
T1 construct: literature Ambit Biosciences
Description: (§1) “Inhibiting kinase activity” means to decrease the production of an phosphor-peptide by a particular kinase that can be separated by analytical techniques. For example, a comprehensive platform of kinase, protease, phosphatase and epigenetic assays that utilizes cutting-edge microfluidics and informatics tools to provide accurate and rapid results. Profiling data in this application were determined using these techniques at Nanosyn Inc. IC50 data were provided by Reaction Biology Inc using a P33 radiolabeled kinase assay.
(§2) A total of 15 new inhibitors were designed, prepared, and evaluated against a panel of 29 selected kinases in order to explore the applicability, SAR trends, and the tunability of this scaffold that could be imposed but this unique geometry, Table 21. Inhibitors I-1 to 1-12 all retained the 2-CF3-5-(4-F-phenyl) imidazole-4-carboxamide scaffold previously described (Deitrich, 2010), but explored different Hinge-Gatekeeper Motifs (HGM).
(§3) More modest activity for Aurora-A, FLT-1/4, KDR, KIT, PDGFRs was accompanied by better activity for B-Raf mutant and wild-type forms, Modest inhibition of MEK-1, BTK, c-Met, RET, and RON was also observed. […] Moreover, the observed inhibition of MEK-1 with 1-12 and TYK2 with I-6 represents additional activities against kinases for which no type-II inhibitors have been reported to date. […] To further evaluate the scope of inhibition, I-6 was evaluated against a larger panel of 230 kinases, Table-22.

[2] = target: TIE2 (Homo sapiens, UniProt Q02763); assay: Nanosyn kinase profiling, % inhibition; assay type: biochemical; settings: panel of 230 kinases
Description: as §1, §2, §3

[3] = target: TYK2 (Homo sapiens, UniProt P29597); assay: Nanosyn kinase profiling, % inhibition; assay type: biochemical; settings: panel of 230 kinases
Description: as §1, §2, §3

[4] = target: T2, PDGFR-β (Homo sapiens, UniProt P09619); assay: Nanosyn kinase profiling, % inhibition; assay type: biochemical; settings: panel of 230 kinases
Description: as §1, §2, §3

[5] = target: T3, RAF1 (Homo sapiens, UniProt P04049); assay: Reaction Biology P33 radiolabeled kinase assay, IC50 and time dependence; assay type: biochemical; settings: for IC50: ATP 10 uM, read-out: Compound IC50* RAF1
T3 construct: literature Ambit Biosciences
Description: as §1
(§4) The observation of potency and isoform selectivity with time-dependency for PI3K-γ appears to be unprecedented in the literature. In addition, these activities combined with inhibition of p38-α, Raf-1, DDR and CSF-1R, would be complimentary and potentially synergistic activities for both the treatment of certain inflammation based conditions and cancers.

[6] = target: T1, BRAF; assay: as above; assay type: biochemical; settings: for IC50: ATP 10 uM, read-out: Compound IC50* BRAF
Description: as §1, §4

[7] = target: T4, PI3K-δ (Homo sapiens, UniProt O00329); assay: as above; assay type: biochemical; settings: for IC50: ATP 10 uM, read-out: Compound IC50* PI3K-δ
T4 construct: purchased Reaction Biology Inc (contract assay)
Description: as §1, §4

[8] = target: PDGFR-α (Homo sapiens, UniProt P16234); assay: as above; assay type: biochemical; settings: for IC50: ATP 10 uM, read-out: Compound IC50* PDGFR-α
Description: as §1, §4

[9] = target: FMS (Homo sapiens, UniProt P07333); assay: as above; assay type: biochemical; settings: for IC50: ATP 10 uM, read-out: Compound IC50* FMS
Description: as §1, §4

[10] = target: PI3K-α (Homo sapiens, UniProt P42336); assay: as above; assay type: biochemical; settings: for IC50: ATP 10 uM, read-out: Compound IC50* PI3K-α
Description: as §1, §4

[11] = target: T2, PDGFR-β; assay: as above; assay type: biochemical; settings: for IC50: ATP 10 uM, read-out: Compound IC50* PDGFR-β
Description: as §1, §4

[12] = target: T5, P38a/MAPK14 (Homo sapiens, UniProt Q16539); assay: as above; assay type: biochemical; settings: for IC50: ATP 10 uM, read-out: Compound IC50* P38a/MAPK14
T5 construct: purchased Reaction Biology Inc (contract assay)
Description: as §1, §4

[13] = target: T6, c-Kit (Homo sapiens, UniProt P10721); assay: as above; assay type: biochemical; settings: for IC50: ATP 10 uM, read-out: Compound IC50* c-Kit
T6 construct: purchased Reaction Biology Inc (contract assay)
Description: as §1, §4

[14] = target: T7, PI3K-β (Homo sapiens, UniProt P42338); assay: as above; assay type: biochemical; settings: for IC50: ATP 10 uM, read-out: Compound IC50* PI3K-β
T7 construct: purchased Reaction Biology Inc (contract assay)
Description: as §1, §4

[15] = target: T8, VEGFR2 (Homo sapiens, UniProt P35968); settings: 1 μM, duplicate, without preincubation; cited from earlier work
T8 construct: literature Ambit Biosciences

[16] = target: BRAF(V600E) (Homo sapiens, UniProt P15056, V600E); assay: LanthaScreen assay, side by side IC50 comparison; assay type: biochemical; settings: LanthaScreen assay, side by side comparison
Description: To test both our binding mode hypothesis and to see if these structural differences could be taken exploited to impart selectivity and potency improvements, I-13, in which the lipophilic 2-trifluoromethy substituent on imidazole ring of inhibitor KIN-035, was replaced by the polar 2-methylsulfonyl substitutent. […] To address this issue, real time kinetic experiments were performed.

[17] = target: T9, KIT(D816V) (Homo sapiens, UniProt P10721, D816V); settings: 1 μM, duplicate, without preincubation; cited from earlier work
T9 construct: literature Ambit Biosciences
T9 sequence (P10721 26-976 D816V): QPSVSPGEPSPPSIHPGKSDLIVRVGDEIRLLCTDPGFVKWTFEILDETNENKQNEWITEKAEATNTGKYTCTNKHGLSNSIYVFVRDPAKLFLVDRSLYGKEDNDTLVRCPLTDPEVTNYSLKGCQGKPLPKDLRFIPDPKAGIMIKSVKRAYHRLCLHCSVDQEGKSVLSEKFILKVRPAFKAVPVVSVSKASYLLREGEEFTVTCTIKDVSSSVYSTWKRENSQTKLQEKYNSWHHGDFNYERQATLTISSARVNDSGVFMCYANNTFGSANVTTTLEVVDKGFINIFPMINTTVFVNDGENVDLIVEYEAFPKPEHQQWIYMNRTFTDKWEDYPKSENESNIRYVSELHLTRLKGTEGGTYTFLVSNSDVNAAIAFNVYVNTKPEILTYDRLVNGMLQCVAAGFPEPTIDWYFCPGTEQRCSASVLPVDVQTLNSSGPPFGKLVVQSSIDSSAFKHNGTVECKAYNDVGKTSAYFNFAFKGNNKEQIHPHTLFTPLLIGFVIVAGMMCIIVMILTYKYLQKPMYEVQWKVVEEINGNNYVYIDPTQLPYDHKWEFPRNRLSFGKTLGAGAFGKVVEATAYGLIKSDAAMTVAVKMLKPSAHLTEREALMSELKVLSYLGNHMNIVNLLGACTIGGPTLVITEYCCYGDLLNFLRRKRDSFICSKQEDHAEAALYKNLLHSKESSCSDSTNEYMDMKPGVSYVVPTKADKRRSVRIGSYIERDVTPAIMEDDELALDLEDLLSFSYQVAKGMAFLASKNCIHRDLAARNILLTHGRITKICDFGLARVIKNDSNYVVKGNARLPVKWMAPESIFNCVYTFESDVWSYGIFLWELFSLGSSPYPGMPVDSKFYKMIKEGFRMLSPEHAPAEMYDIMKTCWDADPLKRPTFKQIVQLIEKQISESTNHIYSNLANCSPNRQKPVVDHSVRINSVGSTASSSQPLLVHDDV

T1 sequence (P15056 whole entry): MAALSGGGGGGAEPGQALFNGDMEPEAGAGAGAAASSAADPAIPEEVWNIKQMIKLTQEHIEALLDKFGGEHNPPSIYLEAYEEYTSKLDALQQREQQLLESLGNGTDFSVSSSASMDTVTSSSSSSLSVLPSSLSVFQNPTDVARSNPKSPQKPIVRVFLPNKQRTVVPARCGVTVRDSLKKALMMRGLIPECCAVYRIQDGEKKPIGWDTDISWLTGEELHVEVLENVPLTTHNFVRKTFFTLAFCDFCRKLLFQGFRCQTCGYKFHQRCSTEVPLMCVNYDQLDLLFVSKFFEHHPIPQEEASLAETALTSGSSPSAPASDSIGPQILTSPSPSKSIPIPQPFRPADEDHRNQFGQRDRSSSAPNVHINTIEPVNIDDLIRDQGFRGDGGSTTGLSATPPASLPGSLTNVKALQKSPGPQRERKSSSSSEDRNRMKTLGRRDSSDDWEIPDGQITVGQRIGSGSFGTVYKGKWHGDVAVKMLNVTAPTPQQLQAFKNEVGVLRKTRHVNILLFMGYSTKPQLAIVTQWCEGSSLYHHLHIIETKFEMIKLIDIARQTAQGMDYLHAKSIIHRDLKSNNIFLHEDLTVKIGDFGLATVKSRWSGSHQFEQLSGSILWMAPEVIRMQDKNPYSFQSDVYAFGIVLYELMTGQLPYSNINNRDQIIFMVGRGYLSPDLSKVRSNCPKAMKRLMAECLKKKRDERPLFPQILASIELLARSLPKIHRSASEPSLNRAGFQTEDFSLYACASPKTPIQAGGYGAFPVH
Chain of FMS (P07333 20-972): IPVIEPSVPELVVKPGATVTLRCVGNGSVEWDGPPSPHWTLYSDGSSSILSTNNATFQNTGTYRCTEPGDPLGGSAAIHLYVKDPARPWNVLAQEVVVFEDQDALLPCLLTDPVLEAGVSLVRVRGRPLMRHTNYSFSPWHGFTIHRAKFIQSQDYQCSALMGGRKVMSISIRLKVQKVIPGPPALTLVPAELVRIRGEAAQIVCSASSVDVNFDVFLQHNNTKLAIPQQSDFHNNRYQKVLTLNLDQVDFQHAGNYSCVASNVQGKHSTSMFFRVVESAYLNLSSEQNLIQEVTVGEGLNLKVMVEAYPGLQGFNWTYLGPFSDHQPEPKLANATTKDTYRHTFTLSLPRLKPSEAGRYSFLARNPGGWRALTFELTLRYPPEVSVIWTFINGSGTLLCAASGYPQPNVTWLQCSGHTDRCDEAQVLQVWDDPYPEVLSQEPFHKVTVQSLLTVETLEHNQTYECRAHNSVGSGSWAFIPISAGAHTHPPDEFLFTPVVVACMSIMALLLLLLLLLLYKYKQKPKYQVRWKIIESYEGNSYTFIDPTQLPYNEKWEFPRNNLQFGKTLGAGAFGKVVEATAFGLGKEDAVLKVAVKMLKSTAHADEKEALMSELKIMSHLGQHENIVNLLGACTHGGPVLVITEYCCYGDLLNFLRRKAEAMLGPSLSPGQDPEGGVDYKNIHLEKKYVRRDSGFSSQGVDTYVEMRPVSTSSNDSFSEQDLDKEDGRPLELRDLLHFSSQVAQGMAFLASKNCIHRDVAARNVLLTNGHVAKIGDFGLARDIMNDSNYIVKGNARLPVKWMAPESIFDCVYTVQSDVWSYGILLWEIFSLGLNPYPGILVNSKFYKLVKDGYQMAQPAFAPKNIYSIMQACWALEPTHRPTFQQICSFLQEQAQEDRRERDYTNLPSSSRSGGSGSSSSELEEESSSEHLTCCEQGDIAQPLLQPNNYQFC
Chain of PDGFR-α (P16234 24-1089): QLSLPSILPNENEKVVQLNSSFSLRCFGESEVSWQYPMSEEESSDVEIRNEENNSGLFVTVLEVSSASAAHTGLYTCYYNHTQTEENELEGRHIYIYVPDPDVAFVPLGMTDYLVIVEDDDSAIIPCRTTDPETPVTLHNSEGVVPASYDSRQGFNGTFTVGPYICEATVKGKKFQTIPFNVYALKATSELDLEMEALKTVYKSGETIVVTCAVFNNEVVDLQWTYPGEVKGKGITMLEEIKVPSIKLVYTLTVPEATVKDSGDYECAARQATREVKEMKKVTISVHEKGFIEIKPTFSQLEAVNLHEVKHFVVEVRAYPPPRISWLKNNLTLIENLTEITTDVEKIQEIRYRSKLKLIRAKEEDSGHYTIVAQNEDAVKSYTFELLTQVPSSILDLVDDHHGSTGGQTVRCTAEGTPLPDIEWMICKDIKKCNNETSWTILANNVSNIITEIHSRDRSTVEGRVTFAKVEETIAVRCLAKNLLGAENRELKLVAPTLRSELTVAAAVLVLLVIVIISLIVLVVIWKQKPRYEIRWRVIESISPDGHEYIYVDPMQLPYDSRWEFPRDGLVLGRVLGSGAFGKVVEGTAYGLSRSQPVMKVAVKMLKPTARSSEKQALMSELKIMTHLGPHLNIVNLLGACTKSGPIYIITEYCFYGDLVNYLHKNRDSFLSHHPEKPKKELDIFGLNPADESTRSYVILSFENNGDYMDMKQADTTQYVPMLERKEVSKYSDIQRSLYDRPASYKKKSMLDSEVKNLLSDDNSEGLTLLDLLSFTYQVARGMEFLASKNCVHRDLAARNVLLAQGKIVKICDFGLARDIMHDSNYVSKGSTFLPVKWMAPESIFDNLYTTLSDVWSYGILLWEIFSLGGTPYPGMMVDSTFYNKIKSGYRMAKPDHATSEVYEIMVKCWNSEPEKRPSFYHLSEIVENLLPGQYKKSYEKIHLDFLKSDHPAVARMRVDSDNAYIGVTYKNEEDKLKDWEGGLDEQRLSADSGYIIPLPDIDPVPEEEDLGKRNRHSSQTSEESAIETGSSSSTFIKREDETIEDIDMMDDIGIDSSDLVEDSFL
T3 sequence (P04049 whole entry): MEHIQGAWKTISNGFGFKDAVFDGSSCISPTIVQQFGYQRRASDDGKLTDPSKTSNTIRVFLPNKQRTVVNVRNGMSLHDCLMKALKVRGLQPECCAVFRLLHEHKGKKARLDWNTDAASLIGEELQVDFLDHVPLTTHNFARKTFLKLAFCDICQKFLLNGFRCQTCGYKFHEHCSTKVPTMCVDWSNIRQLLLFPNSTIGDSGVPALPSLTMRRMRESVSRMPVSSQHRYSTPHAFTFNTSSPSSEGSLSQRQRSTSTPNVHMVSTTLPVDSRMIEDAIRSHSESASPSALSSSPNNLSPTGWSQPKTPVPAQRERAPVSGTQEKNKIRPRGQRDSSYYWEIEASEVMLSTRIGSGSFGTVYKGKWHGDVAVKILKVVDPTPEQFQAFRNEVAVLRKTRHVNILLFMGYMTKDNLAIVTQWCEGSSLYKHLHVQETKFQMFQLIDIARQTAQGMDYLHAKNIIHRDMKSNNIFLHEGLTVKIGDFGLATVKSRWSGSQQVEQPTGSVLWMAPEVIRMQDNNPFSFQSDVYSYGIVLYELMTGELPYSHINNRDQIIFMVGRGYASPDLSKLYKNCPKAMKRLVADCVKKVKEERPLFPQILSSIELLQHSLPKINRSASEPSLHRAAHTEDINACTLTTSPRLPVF
T5 sequence (Q16539 whole entry): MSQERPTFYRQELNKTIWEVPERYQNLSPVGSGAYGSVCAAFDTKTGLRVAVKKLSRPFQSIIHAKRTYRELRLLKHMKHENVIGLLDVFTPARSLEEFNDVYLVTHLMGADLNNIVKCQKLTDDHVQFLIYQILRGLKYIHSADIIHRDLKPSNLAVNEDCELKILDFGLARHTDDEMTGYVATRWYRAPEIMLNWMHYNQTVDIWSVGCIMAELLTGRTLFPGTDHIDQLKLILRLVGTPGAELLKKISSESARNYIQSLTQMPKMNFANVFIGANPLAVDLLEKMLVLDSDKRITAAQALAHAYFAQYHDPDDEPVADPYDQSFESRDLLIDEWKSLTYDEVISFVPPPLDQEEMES
T6 sequence (P10721 26-976): as the sequence (P10721 26-976 D816V) above, with V791D counted along it
Chain of BRAF(V600E) (P15056 whole entry V600E): as the sequence (P15056 whole entry) above, with V600E counted along it

- inhibition at 5 µM [1]: ≥ 50%
- inhibition at 5 µM [2]: ≥ 50%
- inhibition at 5 µM [3]: ≥ 50%
- inhibition at 5 µM [4]: ≥ 50%
SMILES: CNC(=O)c1cc(Oc2ccc(NC(=O)c3nc(C(F)(F)F)[nH]c3-c3ccc(F)cc3)cc2)ccn1 [Inhibitor I-6, 4-(4-{[5-(4-Fluoro-phenyl)-2-trifluoromethyl-3H-imidazole-4-carbonyl]-amino}-phenoxy)-pyridine-2-carboxylic acid methylamide]

- Time Dependence Observed? RAF1 ([5]; 15 vs 60 Min preincubation): Yes
- IC50 ([5]; preincubation 15 Min): 96.5 nM
- IC50 ([5]; preincubation 60 Min): 81.3 nM
- Time Dependence Observed? BRAF ([6]; 15 vs 60 Min preincubation): Yes
- IC50 ([6]; preincubation 15 Min): 388 nM
- IC50 ([6]; preincubation 60 Min): 323 nM
- Time Dependence Observed? PI3K-δ ([7]; 15 vs 60 Min preincubation): Yes
- IC50 ([7]; preincubation 15 Min): 3180 nM
- IC50 ([7]; preincubation 60 Min): 1120 nM
- Time Dependence Observed? PDGFR-α ([8]; 15 vs 60 Min preincubation): No
- IC50 ([8]; preincubation 15 Min): 178 nM
- IC50 ([8]; preincubation 60 Min): 342 nM
- Time Dependence Observed? FMS ([9]; 15 vs 60 Min preincubation): No
- IC50 ([9]; preincubation 15 Min): 220 nM
- IC50 ([9]; preincubation 60 Min): 240 nM
- Time Dependence Observed? PI3K-α ([10]; 15 vs 60 Min preincubation): Yes
- IC50 ([10]; preincubation 15 Min): 899 nM
- IC50 ([10]; preincubation 60 Min): 387 nM
- Time Dependence Observed? PDGFR-β ([11]; 15 vs 60 Min preincubation): No
- IC50 ([11]; preincubation 15 Min): 2010 nM
- IC50 ([11]; preincubation 60 Min): 2510 nM
- Time Dependence Observed? P38a/MAPK14 ([12]; 15 vs 60 Min preincubation): No
- IC50 ([12]; preincubation 15 Min): 150 nM
- IC50 ([12]; preincubation 60 Min): 150 nM
- Time Dependence Observed? c-Kit ([13]; 15 vs 60 Min preincubation): No
- IC50 ([13]; preincubation 15 Min): 772 nM
- IC50 ([13]; preincubation 60 Min): 987 nM
- Time Dependence Observed? PI3K-β ([14]; 15 vs 60 Min preincubation): Yes
- IC50 ([14]; preincubation 15 Min): 12600 nM
- IC50 ([14]; preincubation 60 Min): 2910 nM
SMILES: Cc1ccc(NC(=O)c2nc(S(C)(=O)=O)[nH]c2-c2ccc(F)cc2)cc1Nc1nccc(-c2cccnc2)n1 [Inhibitor I-14, 3-(4-(pyridin-3-yl)-pyrimidinyl-2-yl)amino-4-methyl-analine, 5-(4-Fluorophenyl)-2-(methylsulfonyl)-1H-imidazole-4-carboxamide]

- IC50 [16]: 67 nM
SMILES: Cc1ccc(NC(=O)c2[nH]c(C(F)(F)F)nc2-c2ccc(F)cc2)cc1Nc1ccc2ncn(C)c(=O)c2c1 [KIN-035]
- inhibition of VEGFR2 [15]: X (X > 25% @ 1 μM)

SMILES: Cc1ccc(-c2nc(C(F)(F)F)[nH]c2C(=O)Nc2ccc(C)c(Nc3ccc4ncn(C)c(=O)c4c3)c2)cc1F [KIN-038]
- inhibition of KIT(D816V) [17]: X (X > 25% @ 1 μM)
